pIC50: −log10 of the molar value. Blank lines part the entries; values can stand above or below the compound they belong to. Active and inactive are the calls of the source. No cut-off for these calls is given here.
Assays:
MDA-MB-231 [1] = experiment: Cytotoxicity against human MDA-MB-231 cells assessed as reduction in cell viability incubated for 6 days by SRB assay; assay type: functional, cell-based; settings: Homo sapiens, MDA-MB-231, 144 h
MCF7 [2] = experiment: Cytotoxicity against human MCF7 cells assessed as reduction in cell viability incubated for 6 days by SRB assay; assay type: functional, cell-based; settings: Homo sapiens, MCF7, 144 h
SK-BR-3 [3] = experiment: Cytotoxicity against human SK-BR-3 cells assessed as reduction in cell viability incubated for 6 days by SRB assay; assay type: functional, cell-based; settings: Homo sapiens, SK-BR-3, 144 h
MCF7 [4] = experiment: Induction of cell cycle arrest in human MCF7 cells assessed as reduction in G1 phase at IC25 concentration incubated for 6 days by PI staining based flow cytometric analysis; assay type: functional; settings: time 6.0 day
MCF7 [5] = experiment: Induction of cell cycle arrest in human MCF7 cells assessed as reduction in G1 phase at IC50 concentration incubated for 6 days by PI staining based flow cytometric analysis; assay type: functional; settings: time 6.0 day
MDA-MB-231 [6] = experiment: Induction of cell cycle arrest in human MDA-MB-231 cells assessed as reduction in G1 phase at IC25 concentration incubated for 6 days by PI staining based flow cytometric analysis; assay type: functional; settings: time 6.0 day
MDA-MB-231 [7] = experiment: Induction of cell cycle arrest in human MDA-MB-231 cells assessed as reduction in G1 phase at IC50 concentration incubated for 6 days by PI staining based flow cytometric analysis; assay type: functional; settings: time 6.0 day
SK-BR-3 [8] = experiment: Induction of cell cycle arrest in human SK-BR-3 cells assessed as accumulation of cells at G2/M phase at IC25 concentration incubated for 6 days by PI staining based flow cytometric analysis; assay type: functional; settings: time 6.0 day
SK-BR-3 [9] = experiment: Induction of cell cycle arrest in human SK-BR-3 cells assessed as accumulation of cells at G2/M phase at IC50 concentration incubated for 6 days by PI staining based flow cytometric analysis; assay type: functional; settings: time 6.0 day
MDA-MB-231 [10] = experiment: Induction of DNA damage in human MDA-MB-231 cells assessed as increase in gamma-H2AX level at IC25 concentration incubated for 6 days by flow cytometric analysis; assay type: functional, cell-based; settings: time 6.0 day
MDA-MB-231 [11] = experiment: Induction of DNA damage in human MDA-MB-231 cells assessed as increase in gamma-H2AX level at IC50 concentration incubated for 6 days by flow cytometric analysis; assay type: functional, cell-based; settings: time 6.0 day
MCF7 [12] = experiment: Induction of DNA damage in human MCF7 cells assessed as increase in gamma-H2AX level at IC25 concentration incubated for 6 days by flow cytometric analysis; assay type: functional, cell-based; settings: time 6.0 day
MCF7 [13] = experiment: Induction of DNA damage in human MCF7 cells assessed as increase in gamma-H2AX level at IC50 concentration incubated for 6 days by flow cytometric analysis; assay type: functional, cell-based; settings: time 6.0 day
Quadruplex DNA [14] = experiment: Stabilization of G4 quadruplex DNA (unknown origin) in human MCF7 cells at IC25 concentration incubated for 6 days by flow cytometric analysis; assay type: cell-based; settings: time 6.0 day
Quadruplex DNA [15] = experiment: Stabilization of G4 quadruplex DNA (unknown origin) in human MCF7 cells at IC50 concentration incubated for 6 days by flow cytometric analysis; assay type: cell-based; settings: time 6.0 day
Quadruplex DNA [16] = experiment: Stabilization of G4 quadruplex DNA (unknown origin) in human SK-BR-3 cells assessed as increase in G4 motif at IC50 concentration incubated for 6 days by flow cytometric analysis; assay type: cell-based; settings: time 6.0 day
SK-BR-3 [17] = experiment: Induction of DNA damage in human SK-BR-3 cells assessed as increase in gamma-H2AX level at IC25 concentration incubated for 6 days by flow cytometric analysis; assay type: functional, cell-based; settings: time 6.0 day
SK-BR-3 [18] = experiment: Induction of DNA damage in human SK-BR-3 cells assessed as increase in gamma-H2AX level at IC50 concentration incubated for 6 days by flow cytometric analysis; assay type: functional, cell-based; settings: time 6.0 day
MCF7 [19] = experiment: Downregulation of c-MYC protein expression in human MCF7 cells at IC50 concentration incubated for 6 days by Western blotting analysis; assay type: functional, cell-based; settings: time 6.0 day
Quadruplex DNA [20] = experiment: Binding affinity to c-Myc G4 quadruplex DNA (TGAGGGTGGGTAGGGTGGGTAA) (unknown origin) assessed as equilibrium binding constant (Ka) by ITC analysis; assay type: nucleic-acid assay
Quadruplex DNA [21] = experiment: Binding affinity to HER2 G4 quadruplex DNA (GGAGAAGGAGGAGGTGGAGGAGGAGGG) (unknown origin) assessed as equilibrium binding constant (Ka) by ITC analysis; assay type: nucleic-acid assay
Quadruplex DNA [22] = experiment: Binding affinity to c-Myc G4 quadruplex DNA (TGAGGGTGGGTAGGGTGGGTAA) (unknown origin) assessed as Gibbs free energy by ITC analysis; assay type: nucleic-acid assay
Quadruplex DNA [23] = experiment: Binding affinity to HER2 G4 quadruplex DNA (GGAGAAGGAGGAGGTGGAGGAGGAGGG) (unknown origin) assessed as Gibbs free energy by ITC analysis; assay type: nucleic-acid assay
Quadruplex DNA [24] = experiment: Binding affinity to c-Myc G4 quadruplex DNA (TGAGGGTGGGTAGGGTGGGTAA) (unknown origin) assessed as binding enthalpy by ITC analysis; assay type: nucleic-acid assay
Quadruplex DNA [25] = experiment: Binding affinity to HER2 G4 quadruplex DNA (GGAGAAGGAGGAGGTGGAGGAGGAGGG) (unknown origin) assessed as binding enthalpy by ITC analysis; assay type: nucleic-acid assay
Quadruplex DNA [26] = experiment: Binding affinity to c-Myc G4 quadruplex DNA (TGAGGGTGGGTAGGGTGGGTAA) (unknown origin) assessed as change in entropy by ITC analysis; assay type: nucleic-acid assay
Quadruplex DNA [27] = experiment: Binding affinity to HER2 G4 quadruplex DNA (GGAGAAGGAGGAGGTGGAGGAGGAGGG) (unknown origin) assessed as change in entropy by ITC analysis; assay type: nucleic-acid assay
MDA-MB-231 [28] = experiment: Induction of DNA damage in human MDA-MB-231 cells assessed as increase in gamma-H2AX level incubated for 6 days by flow cytometric analysis; assay type: functional, cell-based; settings: time 6.0 day
Quadruplex DNA [29] = settings: time 10.0 min
Quadruplex DNA [30] = settings: time 10.0 min; remark: listed apart in the source
Quadruplex DNA [31] = settings: time 10.0 min; remark: listed apart in the source
Quadruplex DNA [32] = settings: time 10.0 min; remark: listed apart in the source
Quadruplex RNA [33] = settings: time 10.0 min
Quadruplex RNA [34] = settings: time 10.0 min; remark: listed apart in the source
MCF7 [35] = experiment: Cytotoxicity against human MCF7 cells assessed as reduction in cell viability at 0.625 to 20 uM incubated for 6 days by SRB assay; assay type: functional, cell-based; settings: dose 0.625-20 µM, time 6.0 day
SK-BR-3 [36] = experiment: Cytotoxicity against human SK-BR-3 cells assessed as reduction in cell viability at 0.625 to 20 uM incubated for 6 days by SRB assay; assay type: functional, cell-based; settings: dose 0.625-20 µM, time 6.0 day

- Ka (Quadruplex DNA [20]): 1.5 10^5/M
- Ka (Quadruplex DNA [21]): 2.2 10^5/M
- deltaG (Quadruplex DNA [22]): -7.07 kcal/mol
- deltaG (Quadruplex DNA [23]): -7.29 kcal/mol
- deltaH (Quadruplex DNA [24]): -1.86 kcal/mol
- deltaH (Quadruplex DNA [25]): -5.4 kcal/mol
- TdeltaS (Quadruplex DNA [26]): 5.21 kcal/mol
- TdeltaS (Quadruplex DNA [27]): 1.89 kcal/mol
- deltaTm1/2 (Quadruplex DNA [29]): 19 °C
- deltaTm1/2 (Quadruplex DNA [30]): 8.7 °C
- deltaTm1/2 (Quadruplex DNA [31]): 19.6 °C
- deltaTm1/2 (Quadruplex DNA [32]): 14.8 °C
- deltaTm1/2 (Quadruplex RNA [33]): > 20 °C
- deltaTm1/2 (Quadruplex RNA [34]): 6.6 °C
SMILES: CCc1c2c(nc3ccc(OC(=O)N4CCC(N5CCCCC5)CC4)cc13)-c1cc3c(c(=O)n1C2)COC(=O)[C@]3(O)CC [IRINOTECAN]
- pIC50 (MDA-MB-231 [1]): 5.80
- IC25 (MDA-MB-231 [1]; time 6 day, read-out: IC25): 1100 nM
- pIC50 (MCF7 [2]): 6.32
- IC25 (MCF7 [2]; time 6 day, read-out: IC25): 280 nM
- pIC50 (SK-BR-3 [3]): 6.30
- IC25 (SK-BR-3 [3]; time 6 day, read-out: IC25): 360 nM
- Activity (MCF7 [4]): Active
- Activity (MCF7 [5]): Active
- Activity (MDA-MB-231 [6]): Active
- Activity (MDA-MB-231 [7]): Active
- Activity (SK-BR-3 [8]): Active
- Activity (SK-BR-3 [9]): Active
- Activity (MDA-MB-231 [10]): Active
- Activity (MDA-MB-231 [11]): Active
- Activity (MCF7 [12]): Active; Slightly Lower Dna Damage Observed
- Activity (MCF7 [13]): Active; Slightly Lower Dna Damage Observed
- Activity (Quadruplex DNA [14]): Active
- Activity (Quadruplex DNA [15]): Active
- Activity (Quadruplex DNA [16]): Active
- Activity (SK-BR-3 [17]): Active; Slightly Lower Dna Damage Observed
- Activity (SK-BR-3 [18]): Active; Slightly Lower Dna Damage Observed
- Activity (MCF7 [19]): Active
- Activity (MDA-MB-231 [28]): Dose-dependent-effect

- deltaTm1/2 (Quadruplex DNA [29]): 4.5 °C
- deltaTm1/2 (Quadruplex DNA [30]): -2.6 °C
- deltaTm1/2 (Quadruplex DNA [31]): 9.8 °C
- deltaTm1/2 (Quadruplex DNA [32]): 4.9 °C
- deltaTm1/2 (Quadruplex RNA [33]): 8.5 °C
- deltaTm1/2 (Quadruplex RNA [34]): 5.6 °C
SMILES: Cc1c(-c2ccccc2)oc2c(C(=O)OCCN3CCCCC3)cccc2c1=O
- Activity (MCF7 [35]): Active
- Activity (SK-BR-3 [36]): Active

Reference: ChEMBL document CHEMBL6153050, “Repurposing FDA-approved drugs to target G-quadruplexes in breast cancer” (Eur J Med Chem, 2025)
